Source: patent publication US20250352615A1, “COMPOSITIONS AND METHODS FOR THE MODULATION OF PIEZO1 AND TRPV4” (Duke University, priority 2021, published 2025)

Legend:
[1] = test system: PSCs; test: PSC viability (Live/Dead Cell Imaging Kit); assay type: cell-based; settings: Yoda1 25 μM for 2 hr
Protocol: Mouse and human PSCs were isolated using collagenase digestion. Modified Krebs Henseleit Buffer (KHB) solution (100 mL) was prepared as previously described by Romac et al., Nat. Commun. 9(1):1715 (2018). Pancreatic tissue was digested with 2 mg of collagenase NB 8 (SERVA, catalog 17456) dissolved in 10 mL of modified KHB solution containing 1 mg soybean trypsin inhibitor (SBTI 1-S; Millipore Sigma, catalog T9003) and 20 mg BSA (Thermo Fisher Scientific; BP1600-100). Digestion solution (5 mL) was used to inflate the pancreas. Pancreas with 5 mL of digestion solution was incubated in a shaking water bath for 10 minutes at 37° C. The solution was then discarded. The pancreas tissue was cut into small pieces and digested with fresh 5 mL digestion buffer. Tissue was incubated in a shaking water bath for 40 minutes at 37° C. The cells were then separated from tissue by pipetting up-down with a 10 mL pipette and passed sequentially through a 70 μm and a 40 μm cell strainer. The filtrate was centrifuged at 150×g for 3 minutes at room temperature. The cells were washed with 10 mL Leibovitz's media (Thermo Fisher Scientific, catalog 11415-064), passed through a 20 μm filter, and centrifuged at 80×g for 3 minutes at room temperature. […] The cell viability following Yoda1 treatment was analyzed using the Live/Dead cell imaging kit (Thermo Fisher Scientific, catalog R37601). […]

[2] = test system: pancreatic acini; test: Mitochondrial depolarization in pancreatic acini (TMRE); assay type: cell-based, mouse; settings: Yoda1 50 μM
Protocol: Live-cell mitochondrial depolarization was analyzed using the mitochondrial labeling dye, TMRE. Isolated acini were plated on a thin-layered, Matrigel-coated, glass-bottom culture plate with DMEM/F12 and 10% FBS media and placed in a CO2 incubator for 1 hr at 37° C. After 1 hr, the acini were incubated with TMRE (200 nM) in the bath buffer containing 140 mM NaCl, 4.7 mM KCl, 2.0 CaCl2, 1 mM MgCl2, 10 mM HEPES, and 10 mM glucose (pH adjusted to 7.4 with NaOH) for 30 minutes. The TMRE dye was washed and replaced with fresh bath buffer. The images were captured with a Zeiss Axio observer Z1 microscope with MetaMorph software (Molecular Devices) at intervals of 600 ms. TMRE was excited at 540-600 nm and emission collected at 585-675 nm. Carbonyl cyanide 4-(trifluoromethoxy) phenylhydrazone (FCCP), which uncouples the oxidative phosphorylation process and depolarizes mitochondria, was used as a positive control. A maximum of 2 mitochondrial puncta were taken per acinar cell.

[3] = test system: pancreas; test: Yoda1 pancreatic duct infusion pancreatitis model; assay type: in vivo, mouse; settings: Yoda1 0.4 mg/kg infused into the pancreatic duct
Protocol: Laparotomy surgery was performed both in pancreatic partial duct ligation- and retrograde pancreatic duct infusion-mediated pancreatitis experiments as previously described by Romac et al., Nat. Commun. 9(1):1715 (2018). Yoda1 at a dose of 0.4 mg/kg in 50 μL 1.1% dimethylsulfoxide, 4.8% ethanol, and 94.1% buffered saline was injected. In Yoda1-mediated pancreatitis, the midportion of the pancreas (about 100-125 mg) was carefully excised and used for biochemical assays and histological staining. Histological scoring was evaluated from the entire section. Partial PDL was performed as previously described. Using a stereo microscope, the tail region of the pancreas was visualized, and the main pancreatic duct was ligated carefully with 6-0 Prolene suture without damaging the left portal vein that separates the splenic lobe and gastroduodenal part of the pancreas. […]
Serum amylase concentration was measured by a colorimetric method after reaction with substrate using the Phadebas Amylase Test Tablet (Magle Life Sciences) and the Tecan-infinite M200 Pro plate reader.
MPO was measured using previously described methods with modifications. […] To calculate the mU of MPO/mg of protein, the protein concentrations of the supernatants were measured using the Micro BCA Protein Assay Kit (Thermo Fisher Scientific; 23235). […]

Clc1cccc(Cl)c1CSc1nnc(-c2cnccn2)s1 [Yoda1]
PSC viability and membrane integrity [1]: did not affect PSC viability and membrane integrity
mitochondrial depolarization in Piezo1aci-KO cells [2]: did not depolarize mitochondria
rate of mitochondrial depolarization compared with CCK (10 nM) [2]: occurred at a higher rate than that induced with CCK
TMRE fluorescence intensity (mitochondrial depolarization) ([2]; WT acini): significantly decreased TMRE fluorescence intensity
time to mitochondrial depolarization after application ([2]; CCK 10 nM): ≤ 3 min
pancreatitis in TRPV4-KO mice [3]: did not cause pancreatitis in TRPV4-KO mice
pancreatitis parameters (pancreatic edema, serum amylase, pancreatic MPO, histological scoring) ([3]; WT mice): increased all pancreatitis parameters measured
